Measured values published in US11351168B1 (Celgene CAR LLC, priority 2008, dated 2022).
Where two headings read alike, the source gives them in different places.

Legend:
[1] = tested on: BTK signaling in Ramos cells; experiment: BTK Ramos cellular assay (phosphorylation of BTK substrate PLCγ2); assay type: cell-based, human; conditions: 1 hour compound, anti-IgM stimulation, read-out: BTK Inhibition (Ramos cellular)
Procedure: Compounds I-2, I-4, and I-7 were assayed in Ramos human Burkitt lymphoma cells. Ramos cells were grown in suspension in T225 flasks, spun down, resuspended in 50 ml serum-free media and incubated for 1 hour. Compound was added to Ramos cells in serum free media to a final concentration of 1, 0.1, 0.01, or 0.001 μM. Ramos cells were incubated with compound for 1 hour, washed again and resuspended in 100 ul serum-free media. Cells were then stimulated with 1 μg of goat F(ab′)2 Anti-Human IgM and incubated on ice for 10 minutes to activate B cell receptor signaling pathways. After 10 minutes, the cells were washed once with PBS and then lysed on ice with Invitrogen Cell Extraction buffer. 16 μg total protein from lysates were loaded on gel and blots were probed for phosphorylation of the BTK substrate PLCγ2.

[2] = tested on: BTK kinase activity (PLCγ2 phosphorylation) in Ramos cells; experiment: Washout experiment with Ramos cells; assay type: cell-based, human; conditions: 100 nM compound for 1 hour, then washout
Procedure: Washout Experiment with Ramos Cells
Ramos cells were serum starved for one hour in RPMI media+1% glutamine at 37° C. After starvation, Ramos cells were treated with 100 nM compound diluted in serum free RPMI media for 1 hour. After compound treatment, the media was removed and cells were washed with compound-free media. Subsequently, Ramos cells were washed every 2 hours and resuspended in fresh compound-free media. Cells were collected at specified timepoints, treated with 1 ug anti-human IgM (Southern Biotech cat #2022-01) for 10 minutes on ice to induce BCR signaling and then washed in PBS. Ramos cells were then lysed in Cell Extraction Buffer (Invitrogen FNN0011) supplemented with Roche complete protease inhibitor tablets (Roche 11697498001) and phosphatase inhibitors (Roche 04 906 837 001) and 18 ug total protein lysate was loaded in each lane. Inhibition of BTK kinase activity was assayed by measuring its substrate (PLCγ2) phosphorylation by western blot with phospho-specific antibodies from Cell Signaling Technologies cat #3871. The results of this experiment with compounds I-2, I-4 and I-7 are depicted in FIGS. 1, 2 and 3.

BTK = BTK (Homo sapiens (Human), UniProt Q06187); experiment: Mass spectrometry for BTK (intact protein); assay type: binding; conditions: 1 hr, 10× fold excess of compound
Procedure: Mass Spectrometry for BTK
Intact BTK was incubated for 1 hr at a 10× fold excess of I-7 to protein. Aliquots (2 μl) of the samples were diluted with 10 μl of 0.1% TFA prior to micro C4 ZipTipping directly onto the MALDI target using Sinapinic acid as the desorption matrix (10 mg/ml in 0.1% TFA:Acetonitrile 20:80).

Chain of BTK (Q06187 whole entry): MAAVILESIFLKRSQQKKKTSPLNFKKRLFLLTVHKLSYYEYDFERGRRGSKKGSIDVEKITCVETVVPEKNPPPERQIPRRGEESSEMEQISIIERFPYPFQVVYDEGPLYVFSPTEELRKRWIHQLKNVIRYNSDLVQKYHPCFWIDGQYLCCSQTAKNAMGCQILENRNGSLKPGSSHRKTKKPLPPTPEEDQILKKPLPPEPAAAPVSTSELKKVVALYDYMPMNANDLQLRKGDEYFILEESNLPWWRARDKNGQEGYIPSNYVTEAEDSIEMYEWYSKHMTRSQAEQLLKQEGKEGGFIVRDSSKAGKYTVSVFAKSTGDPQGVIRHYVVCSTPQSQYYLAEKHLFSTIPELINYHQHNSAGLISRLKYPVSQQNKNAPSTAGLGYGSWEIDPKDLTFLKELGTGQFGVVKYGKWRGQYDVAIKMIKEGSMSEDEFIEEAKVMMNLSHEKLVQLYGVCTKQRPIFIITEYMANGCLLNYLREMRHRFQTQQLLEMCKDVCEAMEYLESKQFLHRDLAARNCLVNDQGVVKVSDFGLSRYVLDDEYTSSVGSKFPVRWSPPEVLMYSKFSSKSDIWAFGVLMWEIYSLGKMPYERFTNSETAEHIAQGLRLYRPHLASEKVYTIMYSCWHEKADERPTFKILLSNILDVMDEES

Structure (SMILES) | IC50 ([1]; Homo sapiens) | BTK Inhibition Type [2] | other results
C=CC(=O)Nc1cccc(Oc2nc(Nc3ccccc3)ncc2F)c1 [Compound I-228, N-(3-(5-fluoro-2-(phenylamino)pyrimidin-4-yloxy)phenyl)acrylamide] | < 10 nM | irreversible | 
C=CC(=O)Nc1cccc(Nc2nc(Nc3ccc(OC)nc3)ncc2F)c1 [Compound I-243, N-(3-(5-fluoro-2-(6-methoxypyridin-3-ylamino)pyrimidin-4-ylamino)phenyl)acrylamide] | < 10 nM | irreversible | 
C=C(C#N)C(O)c1cccc(Nc2nc(Nc3ccc(OCCOC)cc3)ncc2F)c1 (centres unmarked) [Compound I-71, 2-((3-(5-fluoro-2-(4-(2-methoxyethoxy)phenylamino)pyrimidin-4-ylamino)phenyl)(hydroxy)methyl)acrylonitrile] |  |  | modification of BTK by mass spectrometry (BTK): completely modify
C=CC(=O)Nc1cccc(Nc2nc(Nc3ccccc3)ncc2F)c1 [Compound I-28, N-(3-(5-fluoro-2-(phenylamino)pyrimidin-4-ylamino)phenyl)acrylamide] |  | irreversible | 
C#CCOc1cccc(Nc2ncc(C)c(Nc3cccc(NC(=O)C=C)c3)n2)c1 [Compound I-35, N-(3-(5-methyl-2-(3-(prop-2-ynyloxy)phenylamino)pyrimidin-4-ylamino)phenyl) acrylamide] | < 10 nM | irreversible | 
C=CC(=O)Nc1cccc(Nc2nc(Nc3ccccc3)ncc2C(N)=O)c1 [Compound I-230, 4-(3-acrylamidophenylamino)-2-(phenylamino)pyrimidine-5-carboxamide] | < 10 nM | irreversible | 
C=CC(=O)Nc1cccc(Nc2nc(Nc3ccc(F)cc3)ncc2F)c1 [Compound I-247, N-(3-(5-fluoro-2-(4-fluorophenylamino)pyrimidin-4-ylamino)phenyl)acrylamide] | < 10 nM | irreversible | 
C=CC(=O)Nc1cccc(Oc2nc(Nc3ccccc3)ncc2C)c1 [Compound I-248, N-(3-(5-methyl-2-(phenylamino)pyrimidin-4-yloxy)phenyl)acrylamide] | < 10 nM | irreversible | 
C=CC(=O)Nc1cccc(Nc2nc(Nc3ccc(OCCOC)cc3)ncc2F)c1 [Compound I-182, N-(3-(5-fluoro-2-(4-(2-methoxyethoxy)phenylamino)pyrimidin-4-ylamino)phenyl)acrylamide] |  |  | modification of BTK by mass spectrometry (BTK): completely modify
C=CC(=O)Nc1cccc(Nc2nc(Nc3cccc(OC)c3)ncc2C(F)(F)F)c1 [Compound I-242, N-(3-(5-trifluoromethyl-2-(3-methoxyphenylamino)pyrimidin-4-ylamino)phenyl)acrylamide] | < 10 nM | irreversible | 
Cc1cnc(Nc2ccccc2)nc1Nc1cccc(NC(=O)/C=C/CN(C)C)c1 [Compound I-38, (E)-4-(dimethylamino)-N-(3-(5-methyl-2-(phenylamino)pyrimidin-4-ylamino)phenyl)but-2-enamide] | 10 to 100 nM | reversible | 
C=CC(=O)Nc1cccc(Nc2nc(Nc3cccc(OCCO)c3)ncc2F)c1 [Compound I-105, N-(3-(5-fluoro-2-(3-(2-hydroxyethoxy)phenylamino)pyrimidin-4-ylamino)phenyl)acrylamide] | < 10 nM |  | 
C=CC(=O)N1CCC[C@@H](Oc2nc(Nc3ccc(OC)nc3)ncc2F)C1 [Compound I-180, (R)-1-(3-(5-fluoro-2-(6-methoxypyridin-3-ylamino)pyrimidin-4-yloxy)piperidin-1-yl)prop-2-en-1-one] | 100 to 1000 nM |  | 
C=CC(=O)Nc1cccc(Nc2nc(Nc3ccccc3)ncc2C(F)(F)F)c1 [Compound I-245, N-(3-(5-trifluoromethyl-2-(phenylamino)pyrimidin-4-ylamino)phenyl)acrylamide] | < 10 nM |  | 
C=CC(=O)N1CCOc2ccc(Nc3nc(Nc4ccc(N5CCOCC5)cc4)ncc3C(C)=O)cc21 [Compound I-169, 1-{6-[5-Acetyl-2-(4-morpholin-4-yl-phenylamino)-pyrimidin-4-ylamino]-2,3-dihydro-benzo[1,4]oxazin-4-yl}-propenone] | < 10 nM |  | 
C=CC(=O)Nc1cccc(Nc2nc(Nc3ccc(OCC4CCN(C)CC4)nc3)ncc2F)c1 [Compound I-78, N-(3-(5-fluoro-2-(6-((1-methylpiperidin-4-yl)methoxy)pyridin-3-ylamino)pyrimidin-4-ylamino)phenyl)acrylamide] | < 10 nM |  | 
C=CC(=O)N1CCC[C@@H](Nc2nc(Nc3cccc(Cl)c3)ncc2F)C1 [Compound I-147, (R)-1-(3-(2-(3-chlorophenylamino)-5-fluoropyrimidin-4-ylamino)piperidin-1-yl)prop-2-en-1-one] | 10 to 100 nM |  | 
C=CC(=O)Nc1cccc(Nc2nc(Nc3cccc(OC)c3)ncc2C(N)=O)c1 [Compound I-210, 4-(3-acrylamidophenylamino)-2-(3-methoxyphenylamino)pyrimidine-5-carboxamide] | < 10 nM |  | 
C=CC(=O)Nc1cccc(Oc2nc(Nc3ccc(OCCOC)cc3)ncc2C2CC2)c1 [Compound I-131, N-(3-(5-cyclopropyl-2-(4-(2-methoxyethoxy)phenylamino)pyrimidin-4-yloxy)phenyl)acrylamide] | < 10 nM |  | 
C=CC(=O)N1CCc2ccc(Nc3nc(Nc4ccc(OC)nc4)ncc3F)cc21 [Compound I-166, 1-(6-(5-fluoro-2-(6-methoxypyridin-3-ylamino)pyrimidin-4-ylamino)indolin-1-yl)prop-2-en-1-one] | 10 to 100 nM |  | 
C=CC(=O)Nc1cccc(Nc2nc(Nc3ccc4c(c3)N(C)CCO4)ncc2F)c1 [Compound I-126, N-(3-(2-(4-methyl-2,3-dihydrobenzo[1,4]oxazin-6-yl)amino-5-fluoropyrimidin-4-ylamino)phenyl)acrylamide] | 10 to 100 nM |  | 
C=CC(=O)N1CCOc2ccc(Nc3nc(Nc4ccc(OCCOC)cc4)ncc3C(C)=O)cc21 [Compound I-150, 1-(6-{5-Acetyl-2-[4-(2-methoxy-ethoxy)-phenylamino]-pyrimidin-4-ylamino}-2,3-dihydro-benzo[1,4]oxazin-4-yl)-propenone] | 10 to 100 nM |  | 
C=CC(=O)N1Cc2ccc(Nc3nc(Nc4ccc(OC)nc4)ncc3F)cc2C1 [Compound I-165, 1-(5-(5-fluoro-2-(6-methoxypyridin-3-ylamino)pyrimidin-4-ylamino)isoindolin-2-yl)prop-2-en-1-one] | 10 to 100 nM |  | 
C=CC(=O)Nc1cccc(Nc2nc(Nc3cccc(OCCCn4ccnc4)c3)ncc2F)c1 [Compound I-204, N-(3-(2-(3-(3-(1H-imidazol-1-yl)propoxy)phenylamino)-5-fluoropyrimidin-4-ylamino)phenyl)acrylamide] | < 10 nM |  | 
C=CC(=O)Nc1cccc(Nc2nc(Nc3cccc(OCC(=O)N4CCOCC4)c3)ncc2F)c1 [Compound I-110, N-(3-(5-fluoro-2-(3-(2-morpholino-2-oxoethoxy)phenylamino)pyrimidin-4-ylamino)phenyl)acrylamide] | 10 to 100 nM |  | 
C=CC(=O)Nc1cccc(Nc2nc(Nc3ccc(OCC(C)(C)O)nc3)ncc2F)c1 [Compound I-313, N-(3-(5-fluoro-2-(6-(2-hydroxy-2-methylpropoxy)pyridin-3-ylamino)pyrimidin-4-ylamino)phenyl)acrylamide] | < 10 nM |  | 
C=CC(=O)Nc1cccc(Nc2nc(Nc3cccc(OCC(C)(C)O)c3)ncc2F)c1 [Compound I-118, N-(3-(5-fluoro-2-(3-(2-hydroxy-2-methylpropoxy)phenylamino)pyrimidin-4-ylamino)phenyl)acrylamide] | < 10 nM |  | 
C=CC(=O)N1CCOc2ccc(Nc3nc(Nc4ccc(OCCO)nc4)ncc3C(C)=O)cc21 [Compound I-128, 1-(6-{5-Acetyl-2-[6-(2-hydroxy-ethoxy)-pyridin-3-ylamino]-pyrimidin-4-ylamino}-2,3-dihydro-benzo[1,4]oxazin-4-yl)-propenone] | 10 to 100 nM |  | 
C=CC(=O)Nc1cc(Nc2nc(Nc3ccc(OCCOC)cc3)ncc2F)ccc1Cl [Compound I-108, N-(2-chloro-5-(5-fluoro-2-(4-(2-methoxyethoxy)phenylamino)pyrimidin-4-ylamino)phenyl)acrylamide] | 10 to 100 nM |  | 
C=CC(=O)N1CCOc2ccc(Nc3nc(Nc4ccc5cn[nH]c5c4)ncc3C(C)=O)cc21 [Compound I-153, 1-{6-[5-Acetyl-2-(1H-indazol-6-ylamino)-pyrimidin-4-ylamino]-2,3-dihydro-benzo[1,4]oxazin-4-yl}-propenone] |  |  | IC50 [1]: < 10 nM
